Assay [1] deals with IgE antibody. Description: Inhibitory effect on production of IgE antibody, oral, X-ray exposed mice immunized with DNP-KLH. The note with it: mouse. It is filed as in vivo, mouse (SJL/J strain). On the procedure:
Inhibitory effect on production of IgE antibody SJL/J strain mice (8-week-old) were exposed to X-rays of 400 R, and concurrently injected intraperitoneally a mixture of 1 μg of Keyhole Limpet Hemocyanin (KLH) with 4 mg of an aluminum hydroxide gel. One week later, the mice were intraperitoneally administered with a mixture of 1 μg of dinitrophenyl group-binding KLH (DNP-KLH) with 4 mg of an aluminum hydroxide gel. From the next day of the immunization with DNP-KLH, each of the mice was forced to be orally administered by using gastric catherter with a test compound suspended in a 1% gum arabic aqueous solution. The mice in a control group were administered with only the gum arabic solution.
The serum was sampled from each of the mice treated above, and the amount of IgE therein was measured by the "Rat 48-hour PCA test" similarly as described in Experiment 1. The amount of IgE was expressed in terms of the maximum dilution of the serum by which a cutaneous reaction appeared in an area with a diameter of 5 mm or more to be observed.
The percent inhibition was indicated as the ratio of the amount of IgE of the test group to that of the control group.
In Table 2, inhibition efficiencies of 25-50%, 50-75% and 75% or more are represented by ratings ++, +++ and ++++, respectively. The numbers given to the test compounds correspond to the Example Nos.

The test system of assay [2] is passive cutaneous anaphylaxis (PCA). Description: Inhibitory effect on passive cutaneous anaphylaxis (PCA), oral. The following applies: rat. It is filed as in vivo, rat (SD/JCL strain). On the procedure:
Rat antiserum to egg albumin was prepared by the method of I. Mota, "Immunology" 7, 681-699 (1964), and 400 folds diluted. The diluted antiserum (0.1 ml) was injected into dorsal skin of rats (SD/JCL strain, male, 9-week-old) to subject them to passive immunization.
Forty-eight to seventy-two hours later, each rat was orally given a compound of this invention suspended in a 1% gum arabic aqueous solution. Five minutes after the administration, each rat was intravenously injected at its tail with 1 ml of a mixture containing equal volumes of a 0.5% solution of egg albumin in saline and 0.5% solution of Evans Blue in saline. Thirty minutes later, each rat was beheaded and the extravasated dye was quantitatively measured by the method of Katayama et al., "Microbiol. Immunol" 22, 89-101 (1978).
The percent inhibition was calculated by comparing the amount of Evans Blue leaking in the test groups with that in the control group in which a gum arabic aqueous solution containing no test compound was administered to the test animal.
In Table 1, inhibition efficiencies of 30 to 50%, 51-70%, 71-90% and 91% or more are represented by the ratings +, ++, +++ and ++++, respectively. The numbers given to the test compounds correspond to the Example Nos.

Each structure is given as a SMILES string.

These results are taken from patent US4691018A, “Pyridine derivatives and their use as anti-allergic agents” (Chugai Seiyaku Kabushiki Kaisha, priority 1985, dated 1987).

In the case of `CCOC(=O)c1cc(C(=O)NC)nc(C(=O)NC)c1` [Compound 1, ethyl 2,6-bis(N-methylcarbamoyl)pyridine-4-carboxylate], the figures for the “Percent Inhibition” value in assay [1] (dose 5 mg/kg) and in assay [2] (dose 5 mg/kg) were “++++ (75% or more)” and “++++ (91% or more)”, respectively.
For the compound `CNC(=O)c1cc(C(=O)O)cc(C(=O)NC)n1` [Compound 2, 2,6-bis(N-methylcarbamoyl)pyridine-4-carboxylic acid], the “Percent Inhibition” value is “++++ (75% or more)” in assay [1] (dose 50 mg/kg) and “+ (30 to 50%)” in assay [2] (dose 50 mg/kg).
On to `CCCOC(=O)c1cc(C(=O)NC)nc(C(=O)NC)c1` [Compound 4], for which, in assay [2] (dose 10 mg/kg), the “Percent Inhibition” value was “++ (51-70%)”.
As for `CNC(=O)c1cc(C(=O)OC(C)C)cc(C(=O)NC)n1` [Compound 5], in assay [1] (dose 5 mg/kg), the “Percent Inhibition” value is reported as “+++ (50-75%)”.
Take `CNC(=O)c1cc(C(=O)OCCOC)cc(C(=O)NC)n1` [Compound 7]: the “Percent Inhibition” value in assay [2] (dose 10 mg/kg) was “++ (51-70%)”.
Consider `CNC(=O)c1cc(C(=O)OCCO)cc(C(=O)NC)n1` [Compound 8, 2-hydroxyethyl 2,6-bis(N-methylcarbamoyl)pyridine-4-carboxylate], for which the entries for the “Percent Inhibition” value in assay [1] (dose 5 mg/kg) and in assay [2] (dose 10 mg/kg) were “++ (25-50%)” and “++ (51-70%)”, respectively.
As for `CCOC(=O)c1cc(C(=O)NC)nc(C(=O)NC)c1N` [Compound 10, ethyl 3-amino-2,6-bis(N-methylcarbamoyl)pyridine-4-carboxylate], the “Percent Inhibition” value in assay [1] (dose 10 mg/kg) was “++++ (75% or more)”; in assay [2] (dose 10 mg/kg), “+++ (71-90%)”.
Regarding `CCOC(=O)c1cc(C(=O)NC)nc(C(=O)NC)c1NC` [Compound 11, ethyl 3-methylamino-2,6-bis(N-methylcarbamoyl)pyridine-4-carboxylate], the “Percent Inhibition” value in assay [1] (dose 5 mg/kg) is reported as “++++ (75% or more)”; in assay [2] (dose 10 mg/kg) it was “++++ (91% or more)”.
